ChEMBL document CHEMBL1255345, “Efficacies of ceftobiprole medocaril and comparators in a rabbit model of osteomyelitis due to methicillin-resistant Staphylococcus aureus” (Antimicrob Agents Chemother, 2008)
Values after ≈ are worked out from the molar mass of the structure shown. Active and inactive are the calls of the source. The rule behind the calls is not given here.

What was measured:
Staphylococcus aureus [1] = test: Antimicrobial activity against methicillin-resistant Staphylococcus aureus infected in New Zealand rabbit osteomyelitis model assessed as improvement in rate of bone reconstruction at 40 mg/kg, sc administered every 6 hrs for 4 weeks measured on week 6 postinfection by radiographic analysis; type: functional, organism-based; set-up: dose 40 mg/kg
Staphylococcus aureus [2] = test: Antimicrobial activity against Staphylococcus aureus 168-1 isolated from osteomyelitis patient by broth macrodilution method; type: functional
[3] = Drug level in tibial marrow of New Zealand rabbit osteomyelitis model at 40 mg/kg, sc administered every 6 hrs for 1 week measured after 3 hrs post last dose; conditions: read-out: Drug uptake
[4] = AUC in New Zealand rabbit at 80 mg/kg, sc administered every 6 hrs for 4 days measured after 1 hr post first dose by RP-HPLC/MS/MS; type: ADME, organism-based, Oryctolagus cuniculus; set-up: time < 1 hr, dose 80 mg/kg, route subcutaneous; conditions: plasma
Staphylococcus aureus [5] = test: Antimicrobial activity against methicillin-resistant Staphylococcus aureus infected in New Zealand rabbit osteomyelitis model assessed as improvement in extent of bone remodeling at 40 mg/kg, sc administered every 6 hrs for 4 weeks measured on week 8 postinfection by radiographic analysis; type: functional, organism-based; set-up: dose 40 mg/kg
Staphylococcus aureus [6] = test: Antimicrobial activity against methicillin-resistant Staphylococcus aureus infected in New Zealand rabbit osteomyelitis model assessed as improvement in rate of bone reconstruction at 40 mg/kg, sc administered every 6 hrs for 4 weeks measured on week 8 postinfection by radiographic analysis; type: functional, organism-based; set-up: dose 40 mg/kg
Oryctolagus cuniculus [7] = test: Toxicity in methicillin-resistant Staphylococcus aureus-infected New Zealand rabbit osteomyelitis model assessed as body weight at 40 mg/kg, sc administered every 6 hrs for 4 days measured on week 4 postinfection (reference value: […] +/- […] kg); type: organism-based; conditions: in vivo
[8] = Drug level in tibial matrix of New Zealand rabbit osteomyelitis model at 40 mg/kg, sc administered every 6 hrs for 1 week measured after 3 hrs post last dose; conditions: read-out: Drug uptake
Staphylococcus aureus [9] = test: Antimicrobial activity against methicillin-resistant Staphylococcus aureus infected in New Zealand rabbit osteomyelitis model assessed as improvement in extent of bone remodeling at 40 mg/kg, sc administered every 6 hrs for 4 weeks measured on week 2 posttreatment by radiographic analysis
Oryctolagus cuniculus [10] = test: Toxicity in methicillin-resistant Staphylococcus aureus-infected New Zealand rabbit osteomyelitis model assessed as body weight at 40 mg/kg, sc administered every 6 hrs for 4 days measured on week 8 postinfection (reference value: […] +/- […] kg); type: organism-based; conditions: in vivo
[11] = Drug level in tibial matrix of New Zealand rabbit at 40 mg/kg, sc administered every 6 hrs for 1 week measured after 3 hrs post last dose; conditions: read-out: Drug uptake
Staphylococcus aureus [12] = test: Antimicrobial activity against methicillin-resistant Staphylococcus aureus infected in New Zealand rabbit osteomyelitis model assessed as improvement in rate of bone reconstruction at 40 mg/kg, sc administered every 6 hrs for 4 weeks measured on week 2 posttreatment by radiographic analysis
[13] = Cmax in New Zealand rabbit at 80 mg/kg, sc administered every 6 hrs for 4 days measured after 1 hr post first dose by RP-HPLC/MS/MS; type: ADME, organism-based, Oryctolagus cuniculus; set-up: dose 80 mg/kg, route subcutaneous; conditions: in vivo
[14] = Cmax in New Zealand rabbit at 80 mg/kg, sc administered every 6 hrs for 4 days measured 16th dose by RP-HPLC/MS/MS; type: ADME, organism-based, Oryctolagus cuniculus; set-up: dose 80 mg/kg, route subcutaneous; conditions: in vivo
[15] = Drug level in tibial marrow of New Zealand rabbit at 40 mg/kg, sc administered every 6 hrs for 1 week measured after 3 hrs post last dose; conditions: read-out: Drug uptake
[16] = Cmax in New Zealand rabbit osteomyelitis model at 40 mg/kg, sc administered every 6 hrs for 4 days; type: ADME, organism-based, Oryctolagus cuniculus; set-up: dose 40 mg/kg, route subcutaneous; conditions: in vivo
Staphylococcus aureus [17] = test: Antimicrobial activity against methicillin-resistant Staphylococcus aureus infected in New Zealand rabbit osteomyelitis model assessed as improvement in extent of bone remodeling at 40 mg/kg, sc administered every 6 hrs for 4 weeks measured on week 6 postinfection by radiographic analysis; type: functional, organism-based; set-up: dose 40 mg/kg
[18] = AUC in New Zealand rabbit at 20 mg/kg, sc administered every 6 hrs for 4 days measured after 1 hr post first dose by RP-HPLC/MS/MS; type: ADME, organism-based, Oryctolagus cuniculus; set-up: time < 1 hr, dose 20 mg/kg, route subcutaneous; conditions: plasma
[19] = Cmin in New Zealand rabbit at 20 mg/kg, sc administered every 6 hrs for 4 days measured after 1 hr post first dose by RP-HPLC/MS/MS; type: ADME, organism-based, Oryctolagus cuniculus; set-up: dose 20 mg/kg, route subcutaneous; conditions: New Zealand, in vivo, read-out: Cmin
[20] = Cmax in New Zealand rabbit at 20 mg/kg, sc administered every 6 hrs for 4 days measured 16th dose by RP-HPLC/MS/MS; type: ADME, organism-based, Oryctolagus cuniculus; set-up: dose 20 mg/kg, route subcutaneous; conditions: in vivo
Oryctolagus cuniculus [21] = test: Toxicity in methicillin-resistant Staphylococcus aureus-infected New Zealand rabbit osteomyelitis model assessed as body weight at 40 mg/kg, sc administered every 6 hrs for 4 days measured on week 6 postinfection (reference value: […] +/- […] kg); type: organism-based; conditions: in vivo
Oryctolagus cuniculus [22] = test: Toxicity in methicillin-resistant Staphylococcus aureus-infected New Zealand rabbit osteomyelitis model assessed as body weight at 40 mg/kg, sc administered every 6 hrs for 4 days measured on week 2 postinfection (reference value: […] +/- […] kg); type: organism-based; conditions: in vivo
[23] = Cmax in human at 500 mg, infusion up to 1 hr; conditions: in vivo
[24] = AUC in human at 500 mg, infusion up to 1 hr; conditions: plasma
[25] = Cmax in New Zealand rabbit at 20 mg/kg, sc administered every 6 hrs for 4 days measured after 1 hr post first dose by RP-HPLC/MS/MS; type: ADME, organism-based, Oryctolagus cuniculus; set-up: dose 20 mg/kg, route subcutaneous; conditions: in vivo
[26] = Plasma concentration in New Zealand rabbit osteomyelitis model at 40 mg/kg, sc administered every 6 hrs for 1 week measured after 3 hrs post last dose

With `Nc1nc(/C(=N/O)C(=O)N[C@@H]2C(=O)N3C(C(=O)O)=C(/C=C4\CCN([C@@H]5CCNC5)C4=O)CS[C@H]23)ns1` [CEFTOBIPROLE] the Activity (Staphylococcus aureus [1]) was “Active”, the MBC (Staphylococcus aureus [2]) was 6.25 µg/mL (≈ 11.7 µM) and the MIC (Staphylococcus aureus [2]) was 0.39 µg/mL (≈ 0.73 µM). The concentration at 3 h [3] was 12800 ng/g, the AUC at 1 h [4] was 215 µg·h/mL and the Activity (Staphylococcus aureus [5]) was “Active”. The Activity (Staphylococcus aureus [6]) was “Active”, the Activity (Oryctolagus cuniculus [7]) was 2.73 kg and the concentration at 3 h [8] was 900 ng/g. For the same compound, the Activity (Staphylococcus aureus [9]) was “Active”, the Activity (Oryctolagus cuniculus [10]) was 3.07 kg and the concentration at 3 h [11] was 300 ng/g. For the same compound, the Activity (Staphylococcus aureus [12]) was “Active”, the Cmax [13] was 83300 ng/mL and the Cmax [14] was 58900 ng/mL. The concentration at 3 h [15] was 2400 ng/g, the Cmax [16] was 76800 ng/mL and the Activity (Staphylococcus aureus [17]) was “Active”. The AUC at 1 h [18] was 65.3 µg·h/mL, the concentration at 1 h [19] was 2700 ng/mL and the Cmax [20] was 22100 ng/mL. For the same compound, the Activity (Oryctolagus cuniculus [21]) was 2.86 kg, the Activity (Oryctolagus cuniculus [22]) was 2.64 kg and the Cmax [23] was 34200 ng/mL. It also gave an AUC at 1 h [24] of 116 µg·h/mL, a Cmax [25] of 23800 ng/mL and a concentration at 3 h [26] of 4900 ng/mL.
